Results as given in patent US9375013B2, “Herbicidal composition” (ISHIHARA SANGYO KAISHA, LTD., priority 2013, dated 2016).

Key:
Type in all cases: in vivo
[1] = test system: ivy-leaved morningglory (Ipomoea hederacea (L.) Jacq.); test: Test Example 2: pot soil treatment, growth inhibition of ivy-leaved morningglory; conditions: 22nd day after treatment, read-out: Growth inhibition rate (%) of ivy-leaved morningglory, Measured value
Excerpt: (§1) On the 14th day after treatment, the state of growth of the summergrass was visually observed to determine the growth inhibition rate in accordance with the following evaluation standard. The growth inhibition rate (%) (measured value) and the growth inhibition rate (%) (calculated value) calculated by the Colby's formula are shown in Table 1. Growth inhibition rate (%)=0 (equivalent to the non-treated area) to 100 (complete kill) Upland field soil was put into a 1/160,000 ha pot, and seeds of ivy-leaved morningglory (Ipomoea hederacea (L.) Jacq.) were sown. On the next day, predetermined amounts of flazasulfuron and hexazinone were diluted with water (in an amount corresponding to 300 L/ha), and applied for soil treatment by a small sprayer. On the 22nd day after treatment, the state of growth of the ivy-leaved morningglory was visually observed to determine the growth inhibition rate. The growth inhibition rate (%) (measured value) and the growth inhibition rate (%) calculated in the same manner as in Test Example 1 are shown in Table 2.

[2] = test system: wild oat (Avena fatua L.); test: Test Example 3: pot soil treatment, growth inhibition of wild oat; conditions: 22nd day after treatment, read-out: Growth inhibition rate (%) of wild oat, Measured value
Excerpt: as §1, with “wild oat (Avena fatua L.)” for “ivy-leaved morningglory (Ipomoea hederacea (L.) Jacq.)”, “flazasulfuron, mesotrione” for “flazasulfuron”, “imazapic” for “hexazinone”, “wild oat” for “ivy-leaved morningglory”, “3.” for “2.”

[3] = test system: guinea grass (Panicum maximum Jacq.); test: Test Example 4: pot soil treatment, growth inhibition of guinea grass; conditions: Megathyrsus maximus, dose 10 g/ha, 22nd day after treatment, read-out: Growth inhibition rate (%) of guinea grass, Measured value
Excerpt: as §1, with “guinea grass (Panicum maximum” for “ivy-leaved morningglory (Ipomoea hederacea (L.)”, “mesotrione” for “hexazinone”, “guinea grass” for “ivy-leaved morningglory”, “4.” for “2.”

[4] = test system: shattercane (Sorghum bicolor (L.) Moench.); test: Test Example 6: pot soil treatment, growth inhibition of shattercane; conditions: dose 30 g/ha, 22nd day after treatment, read-out: Growth inhibition rate (%) of shattercane, Measured value
Excerpt: On the 14th day after treatment, the state of growth of the summergrass was visually observed to determine the growth inhibition rate in accordance with the following evaluation standard. The growth inhibition rate (%) (measured value) and the growth inhibition rate (%) (calculated value) calculated by the Colby's formula are shown in Table 1. Growth inhibition rate (%)=0 (equivalent to the non-treated area) to 100 (complete kill)
Upland field soil was put into a 1/160,000 ha pot, and seeds of shattercane (Sorghum bicolor (L.) Moench.) were sown. On the next day, predetermined amounts of flazasulfuron and hexazinone were diluted with water (in an amount corresponding to 300 L/ha), and applied for soil treatment by a small sprayer.
On the 22nd day after treatment, the state of growth of the shattercane was visually observed to determine the growth inhibition rate. The growth inhibition rate (%) (measured value) and the growth inhibition rate (%) calculated in the same manner as in Test Example 1 are shown in Table 6.

[5] = test system: common ragweed (Ambrosia artemisiifolia L.); test: Test Example 11: pot soil treatment, growth inhibition of common ragweed; conditions: dose 10 g/ha, 21st day after treatment, read-out: Growth inhibition rate (%) of common ragweed, Measured value
Excerpt: as §1, with “common ragweed (Ambrosia artemisiifolia L.)” for “ivy-leaved morningglory (Ipomoea hederacea (L.) Jacq.)”, “imazapic” for “hexazinone”, “21st” for “22nd”, “common ragweed” for “ivy-leaved morningglory”, “11.” for “2.”

[6] = test system: velvetleaf (Abutilon theophrasti MEDIC.); test: Test Example 13: pot soil treatment, growth inhibition of velvetleaf; conditions: dose 30 g/ha, 21st day after treatment, read-out: Growth inhibition rate (%) of velvetleaf, Measured value

`COc1cc(OC)nc(NC(=O)NS(=O)(=O)c2ncccc2C(F)(F)F)n1` [Flazasulfuron, flazasulfuron] showed an inhibition at 10 g/ha ([1]; dose 10 g/ha) of 0%, an inhibition at 30 g/ha ([1]; dose 30 g/ha) of 0% and an inhibition at 50 g/ha ([1]; dose 50 g/ha) of 40%. The inhibition at 30 g/ha ([2]; dose 30 g/ha) was 40%, the inhibition at 50 g/ha ([2]; dose 50 g/ha) was 0% and the inhibition at 10 g/ha [3] was 0%. It also gave an inhibition at 30 g/ha [4] of 60%, an inhibition at 10 g/ha [5] of 80% and an inhibition at 30 g/ha [6] of 75%.
